Assay type in all cases: in vivo
Experiment [1] concerns Phytophthora infestans. The experiment in a line: whole plant or invertebrate. Particulars: Phytophthora infestans, in Solanum lycopersicum, 168 h, read-out: % Control of Tomato Late Blight.
For experiment [2], the system named is Venturia inaequalis. Put plainly: apple scab control on apple seedlings. Conditions: Venturia inaequalis; 100 ppm. The procedure:
Compounds of this invention were dissolved in acetone in an amount equal to 6% of the final volume and then suspended at a concentration of 100 ppm in purified water containing 250 ppm of the surfactant TREM 014 (polyhydric alcohol esters). This suspension was sprayed to the point of run-off on apple seedlings. The following day, the plants were inoculated with a spore suspension of the fungus Venturia inaequalis, causal agent of apple scab, and incubated in a saturated humidity chamber at 20° for 24 hours and then in a growth room for an additional 10-12 days. Treated plants from successful treatments had few or no apple scab lesions when compared to untreated plants which were covered with scab lesions.

For experiment [3], the system named is Rhizoctonia solani. Put plainly: rice sheath blight control on rice seedlings. Conditions: Rhizoctonia solani, 168 h, 7 days. The procedure:
Several compounds of the previous examples were again dissolved in acetone in an amount equal to 6% of the final volume and then suspended at a concentration of 100 ppm in purified water containing 250 ppm of the surfactant TREM 014 (polyhydric alcohol esters). This suspension was sprayed to the point of run-off on rice seedlings. The following day, the plants were inoculated with a mixture of bran and the mycelium of Rhizoctonia solani, causal agent of sheath blight of rice, and incubated in a growth room for 7 days. Disease ratings were then made. Treated plants from successful treatments had little sheath blight in contrast to untreated plants which were covered with sheath blight.

The test system of experiment [4] is Cercospora arachidicola. The experiment in a line: peanut early leafspot control on peanut seedlings. Conditions: Mycosphaerella arachidis, 336 h. The procedure:
Compounds of the previous examples were again dissolved in acetone in an amount equal to 6% of the final volume and then suspended at a concentration of 100 ppm in purified water containing 250 ppm of the surfactant TREM 014 (polyhydric alcohol esters). This suspension was sprayed to the point of run-off on peanut seedlings. The following day, the plants were inoculated with a spore suspension of Cercospora arachidicola, causal agent of peanut early leafspot, and incubated in a saturated humidity chamber at 27° for 24 hours and then in a growth room for an additional 14 days, when disease ratings were made. Treated plants from successful treatments had few or no leafspots while the untreated plants had numerous leafspots on each leaf.

Experiment [5] deals with Erysiphe cichoracearum. The experiment in a line: cucumber powdery mildew control on cucumber seedlings. Particulars: Golovinomyces cichoracearum, 168 h, 7 days. The procedure: Compounds of the previous examples were again dissolved in acetone in an amount equal to 6% of the final volume and then suspended at a concentration of 100 ppm in purified water containing 250 ppm of the surfactant TREM 014 (polyhydric alcohol esters). This suspension was sprayed to the point of run-off on cucumber seedlings. The following day, the plants were inoculated with a spore suspension of the fungus Erysiphe cichoracearum, causal agent of cucumber powdery mildew, and incubated in a growth room for 7 days. Disease ratings were then made. Treated plants from successful treatments had little or no powdery mildew in contrast to untreated plants which were covered with powdery mildew.

The test system of experiment [6] is Helminthosporium maydis. The experiment in a line: southern corn leaf blight control on corn seedlings. Particulars: Bipolaris maydis, 168 h. The procedure:
Compounds of the previous example were again dissolved in acetone in an amount equal to 6% of the final volume and then suspended at a concentration of 100 ppm in purified water containing 250 ppm of the surfactant TREM 014 (polyhydric alcohol esters). This suspension was sprayed to the point of run-off on corn seedlings. The following day, the plants were inoculated with a spore suspension of Helminthosporium maydis, causal agent of southern corn leaf blight, and incubated in a saturated humidity chamber at 20° for 24 hours and then in a growth room for an additional 7 days, when disease ratings were made. Treated plants from successful treatments had few lesions while the untreated plants had numerous lesions on each leaf.

The test system of experiment [7] is Puccinia recondita var. tritici. The experiment in a line: wheat leaf rust control on wheat seedlings. Particulars: 100 ppm, sprayed day before inoculation. The procedure:
Compounds of this invention were dissolved in acetone in an amount equal to 6% of the final volume and then suspended at a concentration of 100 ppm in purified water containing 250 ppm of the surfactant TREM 014 (polyhydric alcohol esters). This suspension was sprayed to the point of run-off on wheat seedlings. The following day, the plants were inoculated with a spore suspension of Puccinia recondita var. tritici, causal agent of wheat leaf rust, and incubated in a saturated humidity chamber at 20° for 24 hours and then in a growth room for an additional 7 days, when disease ratings were made. Treated plants from successful treatments had few or no rust pustules while the untreated plants had numerous rust pustules on each leaf.

For experiment [8], the system named is Pyricularia oryzae. Put plainly: whole plant or invertebrate. Conditions: 168 h, read-out: % Control of Rice Blast.

Pest or weed control data for 13 molecules are collected here from patent publication US4496551A (priority 1983, dated 1985).

Take `C[Si](Cn1ccnc1)(c1ccc(-c2ccccc2)cc1)c1ccc(-c2ccccc2)cc1` [bis(1,1'-Biphenyl-4-yl)(1H-imidazol-1-ylmethyl)methylsilane]: the pest or weed control at 100 ppm in experiment [1] amounted to 0%; in experiment [2], 50%; in experiment [3], 0%; in experiment [4], 60%; in experiment [5], 0%; in experiment [6] it was 0%. In addition, the pest or weed control at 100 ppm in experiment [7] and in experiment [8] was 0% each time.
In the case of `CC(C)O[Si](C)(Cn1ccnc1)c1ccccc1` (centres unmarked) [(1H-Imidazol-1-ylmethyl)methyl(phenyl)(2-propoxy)silane], the pest or weed control at 100 ppm in experiment [1] stood at 0%; in experiment [2], 0%; in experiment [3] it was 0%; in experiment [4] it was 0%; in experiment [5], 90%; in experiment [6], 0%. For the same molecule, the pest or weed control at 100 ppm in experiment [7] and in experiment [8] was 0% in each case.
Consider `Fc1ccc([Si](Cn2ccnc2)(c2ccc(F)cc2)c2ccc(F)cc2)cc1` [tris(4-Fluorophenyl)(1H-imidazol-1-ylmethyl)silane], for which the pest or weed control at 100 ppm in experiment [1] was 0%; in experiment [2] it was 0%; in experiment [3] it was 0%; in experiment [4] it was 0%; in experiment [5], 100%; in experiment [6], 0%. The pest or weed control at 100 ppm in experiment [7] stood at 80%; in experiment [8], 0%.
On to `CC(C)(C)O[Si](C)(Cn1ccnc1)c1ccccc1` (centres unmarked) [(1,1-Dimethylethoxy)(1H-imidazol-1-ylmethyl)methyl(phenyl)silane], for which the pest or weed control at 100 ppm in experiment [1] was 0%; in experiment [2], 0%; in experiment [3] it was 0%; in experiment [4], 0%; in experiment [5], 100%; in experiment [6], 0%. The pest or weed control at 100 ppm in experiment [7] and in experiment [8] was 0% in each case.
On to `C[Si](C)(Cn1ccnc1)c1cccc(Cl)c1` [(3-Chlorophenyl)dimethyl(1H-imidazol-1-ylmethyl)silane], for which the pest or weed control at 100 ppm was determined as 0% in experiment [1]; 60% in experiment [2]; 90% in experiment [3]; 0% in experiment [4]; 80% in experiment [5]; 0% in experiment [6]. Further, the pest or weed control at 100 ppm came out at 80% in experiment [7] and 0% in experiment [8].
As to `C[Si](C)(Cn1ccnc1)c1ccc(-c2ccc(Br)cc2)cc1` [(4'-Bromo-1,1'-biphenyl-4-yl)dimethyl(1H-imidazol-1-ylmethyl)silane], the pest or weed control at 100 ppm was found to be 0% in experiment [1]; 50% in experiment [2]; 90% in experiment [3]; 90% in experiment [4]; 100% in experiment [5]; 0% in experiment [6]. Further, the pest or weed control at 100 ppm turned out to be 100% in experiment [7] and 90% in experiment [8].
As for `C[Si](Cn1ccnc1)(c1ccc(Cl)cc1Cl)c1ccc(Cl)cc1Cl` [bis(2,4-Dichlorophenyl)(1H-imidazol-1-ylmethyl)methylsilane], the pest or weed control at 100 ppm came out at 0% in experiment [1]; 40% in experiment [2]; 80% in experiment [3]; 90% in experiment [4]; 100% in experiment [5]; 80% in experiment [6]. The pest or weed control at 100 ppm in experiment [7] stood at 100%; in experiment [8] it was 0%.
For the molecule `O[Si](Cn1ccnc1)(c1ccc(Cl)cc1)c1ccc(Cl)cc1` [[bis(4-chlorophenyl)]hydroxy(1H-imidazol-1-ylmethyl)silane], the pest or weed control at 100 ppm in experiment [1] is 0%; in experiment [2] it was 0%; in experiment [3] it was 0%; in experiment [4], 50%; in experiment [5], 100%; in experiment [6], 0%. The pest or weed control at 100 ppm in experiment [7] amounted to 80%; in experiment [8], 0%.
Regarding `C[Si](Cn1ccnc1)(c1ccccc1)c1ccc(Cl)cc1Cl` (centres unmarked) [(2,4-Dichlorophenyl)(1H-imidazol-1-ylmethyl)methyl(phenyl)silane], the pest or weed control at 100 ppm in experiment [1] was 0%; in experiment [2], 80%; in experiment [3] it was 0%; in experiment [4], 100%; in experiment [5], 100%; in experiment [6] it was 0%. Also, the pest or weed control at 100 ppm is 90% in experiment [7] and 0% in experiment [8].
Take `CC(C)(C)c1ccc([Si](C)(C)Cn2ccnc2)cc1` [[4-(1,1-Dimethylethyl)phenyl](1H-imidazol-1-ylmethyl)dimethylsilane]: the pest or weed control at 100 ppm in experiment [1] was determined as 0%; in experiment [2], 50%; in experiment [3] it was 0%; in experiment [4], 0%; in experiment [5], 80%; in experiment [6] it was 70%. Further, the pest or weed control at 100 ppm in experiment [7] was 0%; in experiment [8] it was 80%.
Consider `CCCCCCCCCCCCCCCCCC[Si](C)(C)Cn1ccnc1` [Dimethyl(1H-imidazol-1-ylmethyl)octadecylsilane], for which the pest or weed control at 100 ppm in experiment [1] is 0%; in experiment [2] it was 80%; in experiment [3], 100%; in experiment [4] it was 0%; in experiment [5] it was 0%; in experiment [6] it was 0%. Besides, the pest or weed control at 100 ppm came to 0% in experiment [7] and 80% in experiment [8].
As to `C[Si](Cn1ccnc1)(c1ccccc1)c1ccc(Br)cc1` (centres unmarked) [(4-Bromophenyl)(1H-imidazol-1-ylmethyl)methyl(phenyl)silane], the pest or weed control at 100 ppm in experiment [1] turned out to be 0%; in experiment [2], 30%; in experiment [3] it was 0%; in experiment [4], 90%; in experiment [5], 100%; in experiment [6] it was 0%. In addition, the pest or weed control at 100 ppm in experiment [7] came out at 90%; in experiment [8] it was 0%.
In the case of `C[Si](Cn1ccnc1)(c1ccccc1)c1ccc(-c2ccccc2)cc1` (centres unmarked) [(1,1'-Biphenyl-4-yl)(1H-imidazol-1-ylmethyl)methyl(phenyl)silane], the pest or weed control at 100 ppm in experiment [1] was 0%; in experiment [2], 0%; in experiment [3] it was 0%; in experiment [4], 80%; in experiment [5] it was 100%; in experiment [6], 80%. Besides, the pest or weed control at 100 ppm in experiment [7] was determined as 100%; in experiment [8] it was 0%.
